Earlier results, collected in patent US6838050B1, “Methods and devices for providing anti-infective activity to a medical device” (Oxibio, Inc., priority 1999, dated 2005).

What was measured:
[1] = human

**Q.** For II [free iodine, elemental iodine], which “free iodine level at which effective microbial killing occurs” value (bacteria and viruses) is on record?
**A.** Its value is “not less than 0.1 ppm”.

**Q.** What about the “level in solution sufficient to kill bacteria and viruses” value (bacteria and viruses) of the same compound?
**A.** The value was “A few parts per million”.

**Q.** And the “upper daily threshold for total iodine exposure posing no significant health threat” value [1]?
**A.** The value was no more than 1000 micrograms per day.

**Q.** And the “upper limit of solubility” value?
**A.** Its value is roughly 320 ppm.
